Test results: patent US4526891A, “Substituted alkyl amine derivatives of 6,11-dihydro-11-oxodibenz[b,e]oxepins” (Hoechst Roussel Pharmaceuticals Inc., priority 1983, dated 1985)
Where two headings read alike, the source gives them in different places.

System: 2-phenyl-1,4-benzoquinone-induced writhing
Experiment: 2-phenyl-1,4-benzoquinone-induced writhing test in mice (analgesia)
Format: in vivo
Details: for ED50: Mus musculus
[1] = po, read-out: ED50 (dosage which exhibits 50% inhibition of writhing)

## O=C1c2ccccc2COc2ccc(CCN3CCN(c4ccccc4)CC3)cc21 [1-[2-(6,11-Dihydro-11-oxodibenz[b,e]oxepin-2-yl)ethyl]-4-phenylpiperazine]
Oral dose, ** ED50, 50% inhibition, read-out: ED50 (dosage which exhibits 50% inhibition of writhing)
  ED50: 25 mg/kg

## CN(C)CCc1ccc2c(c1)C(=O)c1ccccc1CO2.Cl [2-(6,11-Dihydro-11-oxodibenz[b,e]oxepin-2-yl)-N,N-dimethylethylamine hydrochloride]
25 mg/kg of body weight, subcutaneously (*)
  % Inhibition of writhing: 66%

## CNCCc1ccc2c(c1)C(=O)c1ccccc1CO2.Cl [2-(6,11-Dihydro-11-oxodibenz[b,e]oxepin-2-yl)-N-methylethylamine hydrochloride]
[1]
  ED50: 9.8 mg/kg

## Cl.NCCc1ccc2c(c1)C(=O)c1ccccc1CO2 [2-(6,11-Dihydro-11-oxodibenz[b,e]oxepin-2-yl)ethylamine hydrochloride]
[1]
  ED50: 7.4 mg/kg

## CCC(=O)O[C@](Cc1ccccc1)(c1ccccc1)[C@H](C)CN(C)C [propoxyphene, reference compound]
sc, read-out: dose giving 50% inhibition of writhing (ED50)
  ED50: 3.9 mg/kg
